Publication PMC9686985, “Chimeric Peptides Derived from Bovine Lactoferricin and Buforin II: Antifungal Activity against Reference Strains and Clinical Isolates of Candida spp” (Antibiotics, 2022)
Like-named read-outs stand apart in the source and are kept apart here. Positions of bridges follow the written chain, without caps; N, C: chain ends. Non-standard residues stand in square brackets, D forms with d. Residues, ends and D or L forms follow the SMILES beside them. Chains are numbered I, II in the order given. No end group written: not given here. Ahx = NCCCCCC(=O)O

Key:
C. albicans 256 HUSI-PUJ [1] = format: cell-based, Candida albicans; conditions: for MFC: 24 h; for MIC: 48 h
Experimental: (§1) Antifungal susceptibility testing was carried out using the broth microdilution (BMD) method, following the CLSI M27-A3 guidelines with slight modifications. Briefly, cells (0.5–2.5 × 10^3 CFU/mL) were incubated with peptides (200, 100, 50, 25, 12.5, and 6.25 µg/mL) at 37 °C for 48 h. MICs were visualized and densitometry (595 nm, microplate reader, Bio-Rad, ᵢMark^TM) was used to determine the lowest concentration of peptide that caused a significant decrease (MIC/2 or ≥50%) compared with the growth control (cells incubated in absence of peptide) (n = 3). In order to verify that the peptides were able to kill the yeast cells, the plates were also evaluated for minimum fungicidal concentration (MFC). Briefly, aliquots from each well from susceptibility testing assays were transferred to plates containing Sabouraud dextrose agar (SDA), which were then incubated at 37 °C for 24 h. The highest dilution with no growth on the agar plate was considered to be the MFC.

C. albicans ATCC SC5314 [2] = format: cell-based, Candida albicans
Experimental: as §1

C. albicans 256 = format: cell-based, Candida albicans; conditions: for Inhibition of growth: 256, 48 h; for Time-kill result: Fungicide concentration / Time-kill result: Fungistatic concentration: after 48 h of incubation, RPMI 1640, 37 °C, Bioscreen C
Experimental: (§2) A time-kill kinetic assay was carried out according to the method previously described by Pfaller and coworkers with minor modifications. The peptides (C5, C6, C8, and C9) diluted in RPMI were tested at a range of concentrations: 0 (control), 0.2, 0.5, 1, and 2 times the MIC value for each strain. The isolates were subcultured on SBD, and then an inoculum was adjusted to a 0.5–2.5 × 10^3 CFU/mL in an RPMI 1640 medium. Yeast inoculum (150 uL) was added to a 100-well plate containing serial dilutions of the peptides. The plates were incubated with agitation at 37 °C in a plate reader (Bioscreen C MBR automated turbidometric analyzer, Growth Curves Ltd., Helsinki, Finland), which takes hourly absorbance readings. Moreover, fluconazole MICs were used as a control. The readings were analyzed with Bioscreen software (Growth Curves USA, Piscataway, NJ, USA) and GraphPad Prism 8.0.1 (GraphPad Soft-ware, San Diego, CA, USA). Statistical comparisons were made using an analysis of variance (two-way ANOVA) followed by a Tukey–Kramer post hoc test. P values less than 0.005 were considered significant. […] Moreover, previously determined FLC MICs (data not shown) were used as a control.

C. albicans SC5314 = format: cell-based, Candida albicans; conditions: for Inhibition of growth: SC5314, 48 h; for Time-kill result: Fungicide concentration / Time-kill result: Fungistatic concentration: after 48 h of incubation, RPMI 1640, 37 °C, Bioscreen C
Experimental: as §2

C. albicans 256 HUSI-PUJ [3] = format: cell-based, Candida albicans; conditions: for MICa/A: factor by which the chimera is potentiated in combination: peptide combined with FLC
Experimental: (§3) The in vitro interactions between the peptides (C6, C8, and C9) and the FLC drug were evaluated in a checkerboard assay, as previously described by Cokol et al.. Briefly, each isolate was prepared by picking colonies from an overnight culture in SBD at 37 °C and suspended in a sterile normal saline PBS buffer. The fungal inoculum was adjusted to 0.5 MacFarland and the inoculum was adjusted to 0.5–2.5 × 10^3 CFU/mL. The drug-peptide combinations were formed over a range of concentrations: 0 (control) and 0.06 to 2 times the MIC [51]. The fractional inhibitory concentration index (FICI) was calculated as follows:
(§4) FICI=CML peptide in combination/CMI peptide alone+CML FLC in combination/CMI FLC alone
(§5) The calculated FICI was reported as synergy with values FICI ≤ 0.5, additive FICI > 0.5–1, indifference FICI > 1–4, and antagonism FICI ≥ 4 [52].
(§6) A synergistic effect was considered to be when the effect of the combination exceeded the effects of the individual components. An additive effect was when the effect of the combination was equal to the sum of the effects of the individual components.

C. albicans ATCC SC5314 [4] = format: cell-based, Candida albicans; conditions: for Effect of the combination with FLC (by FICI): checkerboard; for MICa/A: factor by which the chimera is potentiated in combination: peptide combined with FLC
Experimental: as §3, §4, §5, §6

human red blood cells = tested on: human red blood cells; set-up: method as in PMID 33369144; conditions: cited from earlier work
[5] = FLC-resistant clinical isolate, aliquots plated on SDA, 37 °C, no growth
[6] = FLC-resistant clinical isolate, broth microdilution CLSI M27-A3, 37 °C, ≥50% decrease vs growth control, n = 3
[7] = FLC-sensitive reference strain, aliquots plated on SDA, 37 °C, 24 h, no growth
[8] = FLC-sensitive reference strain, broth microdilution CLSI M27-A3, 37 °C, 48 h, ≥50% decrease vs growth control, n = 3
[9] = fungistatic = growth inhibition >70% for 48 h
[10] = time-kill curve, peptide at 12.5 µg/mL (4 µM)

Compound | MFC (C. albicans 256 HUSI-PUJ [1]; 256 HUSI-PUJ) | MIC (C. albicans 256 HUSI-PUJ [1]; 256 HUSI-PUJ) | MFC (C. albicans 256 HUSI-PUJ [1]; [5]) | MIC (C. albicans 256 HUSI-PUJ [1]; [6]) | MFC (C. albicans ATCC SC5314 [2]; ATCC SC5314, 24 h) | MIC (C. albicans ATCC SC5314 [2]; ATCC SC5314, 48 h) | MFC (C. albicans ATCC SC5314 [2]; [7]) | MIC (C. albicans ATCC SC5314 [2]; [8]) | other results
CC(C)C[C@H](NC(=O)[C@H](CC(C)C)NC(=O)[C@H](CCCNC(=N)N)NC(=O)CCCCCNC(=O)[C@H](CCCNC(=N)N)NC(=O)[C@H](Cc1c[nH]c2ccccc12)NC(=O)[C@H](CCC(N)=O)NC(=O)[C@H](Cc1c[nH]c2ccccc12)NC(=O)[C@H](CCCNC(=N)N)NC(=O)[C@@H](N)CCCNC(=N)N)C(=O)N[C@@H](CCCNC(=N)N)C(N)=O [C2] (H-RRWQWR[Ahx]RLLR-NH2; N-terminus assumed) | > 122 µM | 122 µM | > 200 µg/mL | 200 µg/mL | > 122 µM | 122 µM | > 200 µg/mL | 200 µg/mL | 
CC(C)C[C@H](NC(=O)[C@H](CC(C)C)NC(=O)[C@@H](N)CCCNC(=N)N)C(=O)N[C@@H](CCCNC(=N)N)C(=O)NCCCCCC(=O)N[C@@H](CCCNC(=N)N)C(=O)N[C@@H](CCCNC(=N)N)C(=O)N[C@@H](Cc1c[nH]c2ccccc12)C(=O)N[C@@H](CCC(N)=O)C(=O)N[C@@H](Cc1c[nH]c2ccccc12)C(=O)N[C@@H](CCCNC(=N)N)C(N)=O [C4] (H-RLLR[Ahx]RRWQWR-NH2; N-terminus assumed) | > 122 µM | 122 µM | > 200 µg/mL | 200 µg/mL | > 122 µM | > 122 µM | > 200 µg/mL | > 200 µg/mL | 
CC(C)C[C@H](NC(=O)[C@H](CC(C)C)NC(=O)[C@H](CCCCN)NC(=O)[C@H](CCCCN)NC(=O)[C@H](CC(C)C)NC(=O)[C@H](CC(C)C)NC(=O)[C@H](CCCCN)NC(=O)CCCCCNC(=O)[C@H](CCCCN)NC(=O)[C@H](Cc1c[nH]c2ccccc12)NC(=O)[C@H](CCC(N)=O)NC(=O)[C@H](Cc1c[nH]c2ccccc12)NC(=O)[C@H](CCCCN)NC(=O)[C@@H](N)CCCCN)C(=O)N[C@@H](CCCCN)C(N)=O [C7] (H-KKWQWK[Ahx]KLLKKLLK-NH2) | > 101 µM | 101 µM |  |  | > 101 µM | 101 µM |  |  | 
CC(C)C[C@H](NC(=O)[C@H](CC(C)C)NC(=O)[C@H](CCCNC(=N)N)NC(=O)CCCCCNC(=O)[C@H](CCCCNC(=O)[C@H](CCCNC(=N)N)NC(=O)[C@H](Cc1c[nH]c2ccccc12)NC(=O)[C@H](CCC(N)=O)NC(=O)[C@H](Cc1c[nH]c2ccccc12)NC(=O)[C@H](CCCNC(=N)N)NC(=O)[C@@H](N)CCCNC(=N)N)NC(=O)[C@H](CCCNC(=N)N)NC(=O)[C@H](Cc1c[nH]c2ccccc12)NC(=O)[C@H](CCC(N)=O)NC(=O)[C@H](Cc1c[nH]c2ccccc12)NC(=O)[C@H](CCCNC(=N)N)NC(=O)[C@@H](N)CCCNC(=N)N)C(=O)N[C@@H](CCCNC(=N)N)C(N)=O [C8] (I: H-RRWQWRK[Ahx]RLLR-NH2 / II: H-RRWQWR; amide I:7-II:C; N-terminus assumed) | 37 µM | 37 µM | 100 µg/mL | 100 µg/mL | 37 µM | 37 µM | 100 µg/mL | 100 µg/mL | Inhibition of growth (C. albicans 256): more than 90%; Time-kill result: Fungicide concentration (C. albicans 256; fungicidal = yeast kill ≥99%): 200 µg/mL; Time-kill result: Fungistatic concentration (C. albicans 256; [9]): 100 µg/mL; Time-kill result: Fungicide concentration (C. albicans 256; value in brackets): 73 µM; Time-kill result: Fungistatic concentration (C. albicans 256; value in brackets): 37 µM; Incubation time up to which yeast growth was inhibited (C. albicans 256; time-kill curve, peptide at 100 µg/mL): ~40 h; Inhibition of growth (C. albicans SC5314): more than 90%; Time-kill result: Fungicide concentration (C. albicans SC5314; fungicidal = yeast kill ≥99%): 200 µg/mL; Time-kill result: Fungistatic concentration (C. albicans SC5314; [9]): 100 µg/mL; Time-kill result: Fungicide concentration (C. albicans SC5314; value in brackets): 73 µM; Time-kill result: Fungistatic concentration (C. albicans SC5314; value in brackets): 37 µM; Incubation time up to which yeast growth was completely inhibited (C. albicans SC5314; time-kill curve, peptide at 100 µg/mL (37 µM)): about 23 h; Effect of the combination with FLC (by FICI) (C. albicans 256 HUSI-PUJ [3]; checkerboard): indifferent; MICa/A: factor by which the chimera is potentiated in combination (C. albicans 256 HUSI-PUJ [3]): 2; Effect of the combination with FLC (by FICI) (C. albicans ATCC SC5314 [4]): synergistic; MICa/A: factor by which the chimera is potentiated in combination (C. albicans ATCC SC5314 [4]): 8
CC(C)C[C@H](NC(=O)[C@H](CC(C)C)NC(=O)[C@H](CCCNC(=N)N)NC(=O)[C@H](CCCNC(=N)N)NC(=O)[C@H](CC(C)C)NC(=O)[C@H](CC(C)C)NC(=O)[C@H](CCCNC(=N)N)NC(=O)CCCCCNC(=O)[C@H](CCCCNC(=O)[C@H](CCCNC(=N)N)NC(=O)[C@H](Cc1c[nH]c2ccccc12)NC(=O)[C@H](CCC(N)=O)NC(=O)[C@H](Cc1c[nH]c2ccccc12)NC(=O)[C@H](CCCNC(=N)N)NC(=O)[C@@H](N)CCCNC(=N)N)NC(=O)[C@H](CCCNC(=N)N)NC(=O)[C@H](Cc1c[nH]c2ccccc12)NC(=O)[C@H](CCC(N)=O)NC(=O)[C@H](Cc1c[nH]c2ccccc12)NC(=O)[C@H](CCCNC(=N)N)NC(=O)[C@@H](N)CCCNC(=N)N)C(=O)N[C@@H](CCCNC(=N)N)C(N)=O [C9] (I: H-RRWQWRK[Ahx]RLLRRLLR-NH2 / II: H-RRWQWR; amide I:7-II:C; N-terminus assumed) | 15 µM | 15 µM | 50 µg/mL | 50 µg/mL | 15 µM | 15 µM | 50 µg/mL | 50 µg/mL | Inhibition of growth (C. albicans 256): more than 90%; Time-kill result: Fungicide concentration (C. albicans 256; fungicidal = yeast kill ≥99%): 25 µg/mL; Time-kill result: Fungistatic concentration (C. albicans 256; [9]): 13 µg/mL; Time-kill result: Fungicide concentration (C. albicans 256; value in brackets): 8 µM; Time-kill result: Fungistatic concentration (C. albicans 256; value in brackets): 4 µM; Incubation time up to which strain growth was completely inhibited (C. albicans 256; [10]): approximately 20 h; Inhibition of growth (C. albicans SC5314): more than 90%; Time-kill result: Fungicide concentration (C. albicans SC5314; fungicidal = yeast kill ≥99%): 25 µg/mL; Time-kill result: Fungistatic concentration (C. albicans SC5314; [9]): 13 µg/mL; Time-kill result: Fungicide concentration (C. albicans SC5314; value in brackets): 8 µM; Time-kill result: Fungistatic concentration (C. albicans SC5314; value in brackets): 4 µM; Incubation time up to which strain growth was completely inhibited (C. albicans SC5314; [10]): approximately 20 h; MICa: MIC of the chimeric peptide alone (C. albicans 256 HUSI-PUJ [3]; 256 HUSI-PUJ): 50 µg/mL; MICa/A: factor by which the chimera is potentiated in combination (C. albicans 256 HUSI-PUJ [3]): 2; MICa: MIC of the chimeric peptide alone (C. albicans ATCC SC5314 [4]; ATCC SC5314): 100 µg/mL; Effect of the combination with FLC (by FICI) (C. albicans ATCC SC5314 [4]): synergistic; MICa/A: factor by which the chimera is potentiated in combination (C. albicans ATCC SC5314 [4]): 4
RLLRRLLR [BFII (32–35)Pal, reference compound] | > 183 µM | > 183 µM |  |  | > 183 µM | > 183 µM |  |  | 
RLLRRRWQWR-NH2 [C3] | 131 µM | 66 µM |  |  | 131 µM | 66 µM |  |  | Hemolytic effect (human red blood cells): 2–4%
RRWQWRRLLR-NH2 [C1] | > 131 µM | 66 µM |  |  | > 131 µM | 131 µM |  |  | 
